Where two headings read alike, the source gives them in different places.
Columns and labels:
Assay in all cases: Sensitivity test (agar dilution), clinical isolate
Acinetobacter spp. 1195 = format: cell-based, Acinetobacter calcoaceticus and Acinetobacter lwoffi
Procedure: (§1) In addition, the antibacterial activities were tested against strains which are comparatively less sensitive to β-lactam compounds, namely clinically isolated 13 strains of Acinetobacter calcoaceticus and Acinetobacter lwoffi, clinically isolated 11 strains of Serratia marcescens, clinically isolated 12 strains of Burkholderia cepacia, and clinically isolated 15 strains of Pseudomonas aeruginosa.
(§2) According to the standard method of Japan Chemotherapeutic Society (Chemotherapy, vol. […], p 76-79 (1981)) the test was carried out using the agar dilution method. After dissolving test samples in distilled water, agar medium containing the test samples was prepared in such a manner that the final concentration became twice serial dilution by pouring serially diluted combination drug solution or a single drug solution into agar medium. As agar medium was used Mueller Hinton Agar medium (MHA). Then, each strain was cultivated over night at 37° C. in an incubator and suspended in buffered saline solution with gelatin (BSG) in the concentration of about 10^6 CFU/ml. The suspension (about 5 μl) containing test strains was inoculated to the medium containing the test samples by Micro Planter.
(§3) Each drug was weighed, and dissolved in distilled water to give a test sample. When the drugs are used in combination, two kinds of solution containing each drug were mixed so as to be various ratio of concentration to give a mixed solution. When the sample is subjected to sensitivity test, this mixed solution was diluted by twice serial dilution method.
(§4) Furthermore, when the drug is solely used, each test sample was used as it is, and diluted by twice serial dilution method from the maximum concentration to the minimum concentration.

Acinetobacter spp. 14712 = format: cell-based, Acinetobacter calcoaceticus and Acinetobacter lwoffi
Procedure: as §1, §2, §3, §4

Acinetobacter spp. 175 = format: cell-based, Acinetobacter calcoaceticus and Acinetobacter lwoffi
Procedure: as §1, §2, §3, §4

B. cepacia 14430 = format: cell-based, Burkholderia cepacia
Procedure: as §1, §2, §3, §4

B. cepacia 14607 = format: cell-based, Burkholderia cepacia
Procedure: as §1, §2, §3, §4

B. cepacia 7247 = format: cell-based, Burkholderia cepacia
Procedure: as §1, §2, §3, §4

B. cepacia 3138 = format: cell-based, Burkholderia cepacia
Procedure: as §1, §2, §3, §4

B. cepacia 257-1 = format: cell-based, Burkholderia cepacia
Procedure: as §1, §2, §3, §4

B. cepacia 14429 = format: cell-based, Burkholderia cepacia
Procedure: as §1, §2, §3, §4

B. cepacia 7438 = format: cell-based, Burkholderia cepacia
Procedure: as §1, §2, §3, §4

B. cepacia 1993527 = format: cell-based, Burkholderia cepacia
Procedure: as §1, §2, §3, §4

B. cepacia 14300 = format: cell-based, Burkholderia cepacia
Procedure: as §1, §2, §3, §4

B. cepacia 14427 = format: cell-based, Burkholderia cepacia
Procedure: as §1, §2, §3, §4

B. cepacia 14428 = format: cell-based, Burkholderia cepacia
Procedure: as §1, §2, §3, §4

B. cepacia 1892324 = format: cell-based, Burkholderia cepacia
Procedure: as §1, §2, §3, §4

Measured: MIC

C[C@@H](O)[C@H]1C(=O)N2C(C(=O)O)=C(S[C@@H]3CN[C@H](C(=O)N(C)C)C3)[C@H](C)[C@H]12 [MEPM, meropenem]
1 µg/mL: Acinetobacter spp. 14712; SPP.14712, alone | B. cepacia 14430; Burkholderia cepacia, 14430, Concomitant (ME:SM = 1:1) | B. cepacia 14430; Burkholderia cepacia, 14430, Concomitant (ME:SM = 1:2) | B. cepacia 14607; Burkholderia cepacia, 14607, Concomitant (ME:SM = 1:1) | B. cepacia 14607; Burkholderia cepacia, 14607, Concomitant (ME:SM = 2:1) | B. cepacia 14607; Burkholderia cepacia, 14607, alone | B. cepacia 3138; Burkholderia cepacia, 3138, Concomitant (ME:SM = 1:1) | B. cepacia 3138; Burkholderia cepacia, 3138, Concomitant (ME:SM = 1:2) | B. cepacia 14429; Burkholderia cepacia, 14429, Concomitant (ME:SM = 1:1) | B. cepacia 14429; Burkholderia cepacia, 14429, Concomitant (ME:SM = 2:1) | B. cepacia 14429; Burkholderia cepacia, 14429, alone | B. cepacia 7438; Burkholderia cepacia, 7438, Concomitant (ME:SM = 1:2) | B. cepacia 1993527; Burkholderia cepacia, 1993527, Concomitant (ME:SM = 1:1) | B. cepacia 1993527; Burkholderia cepacia, 1993527, Concomitant (ME:SM = 1:2) | B. cepacia 14427; Burkholderia cepacia, 14427, Concomitant (ME:SM = 1:1) | B. cepacia 14427; Burkholderia cepacia, 14427, Concomitant (ME:SM = 2:1) | B. cepacia 14427; Burkholderia cepacia, 14427, alone | B. cepacia 14428; Burkholderia cepacia, 14428, Concomitant (ME:SM = 1:1) | B. cepacia 14428; Burkholderia cepacia, 14428, Concomitant (ME:SM = 1:2) | B. cepacia 14428; Burkholderia cepacia, 14428, Concomitant (ME:SM = 2:1) | B. cepacia 1892324; Burkholderia cepacia, 1892324, Concomitant (ME:SM = 1:1) | B. cepacia 1892324; Burkholderia cepacia, 1892324, Concomitant (ME:SM = 1:2)
0.063 µg/mL: Acinetobacter spp. 1195; SPP.1195, Concomitant (ME:SM = 1:4), read-out: MIC | Acinetobacter spp. 175; Acinetobacter, SPP.175, Concomitant (ME:SM = 1:2), read-out: MIC | Acinetobacter spp. 175; Acinetobacter, SPP.175, Concomitant (ME:SM = 1:4), read-out: MIC
0.125 µg/mL: Acinetobacter spp. 1195; SPP.1195 | Acinetobacter spp. 175; Acinetobacter, SPP.175 | Acinetobacter spp. 175; Concomitant (ME:SM = 1:1) | Acinetobacter spp. 175; Concomitant (ME:SM = 2:1)
2 µg/mL: B. cepacia 14430; Burkholderia cepacia, 14430, Concomitant (ME:SM = 1:4) | B. cepacia 14430; Burkholderia cepacia, 14430, Concomitant (ME:SM = 2:1) | B. cepacia 14430; Burkholderia cepacia, 14430, alone | B. cepacia 7247; Burkholderia cepacia, 7247, Concomitant (ME:SM = 1:1) | B. cepacia 7247; Burkholderia cepacia, 7247, Concomitant (ME:SM = 1:2) | B. cepacia 7247; Burkholderia cepacia, 7247, Concomitant (ME:SM = 1:4) | B. cepacia 7247; Burkholderia cepacia, 7247, Concomitant (ME:SM = 2:1) | B. cepacia 7247; Burkholderia cepacia, 7247, alone | B. cepacia 3138; Burkholderia cepacia, 3138, Concomitant (ME:SM = 1:4) | B. cepacia 3138; Burkholderia cepacia, 3138, Concomitant (ME:SM = 2:1) | B. cepacia 3138; Burkholderia cepacia, 3138, alone | B. cepacia 7438; Burkholderia cepacia, 7438, Concomitant (ME:SM = 1:1) | B. cepacia 7438; Burkholderia cepacia, 7438, Concomitant (ME:SM = 1:4) | B. cepacia 7438; Burkholderia cepacia, 7438, Concomitant (ME:SM = 2:1) | B. cepacia 7438; Burkholderia cepacia, 7438, alone | B. cepacia 1993527; Burkholderia cepacia, 1993527, Concomitant (ME:SM = 1:4) | B. cepacia 1993527; Burkholderia cepacia, 1993527, Concomitant (ME:SM = 2:1) | B. cepacia 1993527; Burkholderia cepacia, 1993527, alone | B. cepacia 14428; Burkholderia cepacia, 14428, alone | B. cepacia 1892324; Burkholderia cepacia, 1892324, Concomitant (ME:SM = 2:1) | B. cepacia 1892324; Burkholderia cepacia, 1892324, alone
0.5 µg/mL: Acinetobacter spp. 14712; SPP.14712, Concomitant (ME:SM = 1:1) | Acinetobacter spp. 14712; SPP.14712, Concomitant (ME:SM = 1:2) | Acinetobacter spp. 14712; SPP.14712, Concomitant (ME:SM = 2:1) | B. cepacia 14607; Burkholderia cepacia, 14607, Concomitant (ME:SM = 1:2) | B. cepacia 14607; Burkholderia cepacia, 14607, Concomitant (ME:SM = 1:4) | B. cepacia 257-1; Burkholderia cepacia, 2571, Concomitant (ME:SM = 1:1) | B. cepacia 257-1; Burkholderia cepacia, 2571, Concomitant (ME:SM = 2:1) | B. cepacia 257-1; Burkholderia cepacia, 2571, alone | B. cepacia 14429; Burkholderia cepacia, 14429, Concomitant (ME:SM = 1:2) | B. cepacia 14429; Burkholderia cepacia, 14429, Concomitant (ME:SM = 1:4) | B. cepacia 14300; Burkholderia cepacia, 14300, Concomitant (ME:SM = 1:1) | B. cepacia 14300; Burkholderia cepacia, 14300, Concomitant (ME:SM = 1:2) | B. cepacia 14300; Burkholderia cepacia, 14300, Concomitant (ME:SM = 2:1) | B. cepacia 14300; Burkholderia cepacia, 14300, alone | B. cepacia 14427; Burkholderia cepacia, 14427, Concomitant (ME:SM = 1:2) | B. cepacia 14427; Burkholderia cepacia, 14427, Concomitant (ME:SM = 1:4) | B. cepacia 14428; Burkholderia cepacia, 14428, Concomitant (ME:SM = 1:4) | B. cepacia 1892324; Burkholderia cepacia, 1892324, Concomitant (ME:SM = 1:4)
0.25 µg/mL: Acinetobacter spp. 1195; SPP.1195, Concomitant (ME:SM = 1:1), read-out: MIC | Acinetobacter spp. 1195; SPP.1195, Concomitant (ME:SM = 2:1), read-out: MIC | Acinetobacter spp. 1195; SPP.1195, alone, read-out: MIC | Acinetobacter spp. 14712; SPP.14712, Concomitant (ME:SM = 1:4) | B. cepacia 257-1; Burkholderia cepacia, 2571, Concomitant (ME:SM = 1:2) | B. cepacia 257-1; Burkholderia cepacia, 2571, Concomitant (ME:SM = 1:4) | B. cepacia 14300; Burkholderia cepacia, 14300, Concomitant (ME:SM = 1:4)

— patent publication US20090018111A1, “Novel Antimicrobial Medicament” (priority 2004, published 2009)
